# Test results taken from article PMC10700596 (Nature Communications, 2023).
# Where “and” joins values, the source holds several entries; their conditions need not be identical. Equal entries are not always repeated. Where two headings read alike, the source gives them in different places.
# Assay: in vivo
# Assay type: in vivo, mice
# Conditions: plasma, mice, plasma; for Final plasma concentration, individual sample: IP 10 mg/kg, single animal, D=1
smiles,measurement,setting,value
"O=C([O-])C1CCC2(CC1)CC(Nc1ncnc3[nH]c4c(F)cccc4c13)C2.[Na+] (centres unmarked) [Compound 77, [Na+].[O-]C(=O)C1CCC2(CC(C2)NC=3N=CN=C4NC=5C(F)=CC=CC5C34)CC1]",concentration at 15 min,"male, CD-1, mouse, po, 30 mg/kg, PO 30 mg/kg, 15 min, read-out: Plasma concentration C (mean)",24200 ng/mL
same,concentration at 30 min,"male, CD-1, mouse, po, 30 mg/kg, PO 30 mg/kg, 30 min, single animals, read-out: Plasma concentration, Final (individual mouse)",23000 ng/mL
same,concentration at 30 min,"male, CD-1, mouse, po, 30 mg/kg, PO 30 mg/kg, 30 min, read-out: Plasma concentration C (mean)",21700 ng/mL
same,concentration at 60 min,"male, CD-1, mouse, po, 30 mg/kg, PO 30 mg/kg, 60 min, single animals, read-out: Plasma concentration, Final (individual mouse)",24400 ng/mL
same,concentration at 60 min,"male, CD-1, mouse, po, 30 mg/kg, PO 30 mg/kg, 60 min, read-out: Plasma concentration C (mean)",19600 ng/mL
same,concentration at 120 min,"male, CD-1, mouse, po, 30 mg/kg, PO 30 mg/kg, 120 min, single animals, read-out: Plasma concentration, Final (individual mouse)",11600 ng/mL
same,concentration at 120 min,"male, CD-1, mouse, po, 30 mg/kg, PO 30 mg/kg, 120 min, read-out: Plasma concentration C (mean)",9140 ng/mL
same,concentration at 240 min,"male, CD-1, mouse, po, 30 mg/kg, PO 30 mg/kg, 240 min, single animals, read-out: Plasma concentration, Final (individual mouse)",5200 ng/mL
same,concentration at 240 min,"male, CD-1, mouse, po, 30 mg/kg, PO 30 mg/kg, 240 min, read-out: Plasma concentration C (mean)",3600 ng/mL
same,concentration at 360 min,"male, CD-1, mouse, po, 30 mg/kg, PO 30 mg/kg, 360 min, single animals, read-out: Plasma concentration, Final (individual mouse)",4400 ng/mL
same,concentration at 360 min,"male, CD-1, mouse, po, 30 mg/kg, PO 30 mg/kg, 360 min, read-out: Plasma concentration C (mean)",4510 ng/mL
same,concentration at 480 min,"male, CD-1, mouse, po, 30 mg/kg, PO 30 mg/kg, 480 min, read-out: Plasma concentration C (mean)",5240 ng/mL
same,concentration at 1440 min,"male, CD-1, mouse, po, 30 mg/kg, PO 30 mg/kg, 1440 min, read-out: Plasma concentration C (mean)",187 ng/mL
same,AUC,"male, CD-1, mouse, po, 30 mg/kg p.o., read-out: AUC (converted)",108 µg·h/mL
same,"Final plasma concentration, individual sample","5 min, listed as Z5090949977, 10 mg/kg",2415 ng/mL and 2458 ng/mL
same,"Final plasma concentration, individual sample","15 min, listed as Z5090949977, 10 mg/kg",7952 ng/mL and 6935 ng/mL
same,"Final plasma concentration, individual sample","30 min, listed as Z5090949977, 10 mg/kg",4477 ng/mL and 7535 ng/mL
same,"Final plasma concentration, individual sample","60 min, listed as Z5090949977, 10 mg/kg",9306 ng/mL and 9568 ng/mL
same,"Final plasma concentration, individual sample","120 min, listed as Z5090949977, 10 mg/kg",9975 ng/mL and 654 ng/mL and 8498 ng/mL
same,"Final plasma concentration, individual sample","240 min, listed as Z5090949977, 10 mg/kg",3566 ng/mL and 4977 ng/mL and 2222 ng/mL
same,"Final plasma concentration, individual sample","360 min, listed as Z5090949977, 10 mg/kg",2567 ng/mL and 1708 ng/mL
same,"Final plasma concentration, individual sample","480 min, listed as Z5090949977, 10 mg/kg",872 ng/mL and 500 ng/mL
same,"Final plasma concentration, individual sample","1440 min, listed as Z5090949977, 10 mg/kg",13.6 ng/mL and 18.4 ng/mL
same,"Plasma concentration, Final (individual mouse)","IV 10 mg/kg, 5 min, single animals, listed as Z5090949977, 10 mg/kg",28260 ng/mL and 26240 ng/mL
same,"Plasma concentration, Final (individual mouse)","IV 10 mg/kg, 15 min, single animals, listed as Z5090949977, 10 mg/kg",16140 ng/mL and 20380 ng/mL
same,"Plasma concentration, Final (individual mouse)","IV 10 mg/kg, 30 min, single animals, listed as Z5090949977, 10 mg/kg",14230 ng/mL and 12830 ng/mL
same,"Plasma concentration, Final (individual mouse)","IV 10 mg/kg, 60 min, single animals, listed as Z5090949977, 10 mg/kg",8422 ng/mL and 12040 ng/mL
same,"Plasma concentration, Final (individual mouse)","IV 10 mg/kg, 120 min, single animals, listed as Z5090949977, 10 mg/kg",4081 ng/mL and 3418 ng/mL
same,"Plasma concentration, Final (individual mouse)","IV 10 mg/kg, 240 min, single animals, listed as Z5090949977, 10 mg/kg",2055 ng/mL and 1818 ng/mL
same,"Plasma concentration, Final (individual mouse)","IV 10 mg/kg, 360 min, single animals, listed as Z5090949977, 10 mg/kg",2041 ng/mL and 1884 ng/mL
same,"Plasma concentration, Final (individual mouse)","IV 10 mg/kg, 480 min, single animals, listed as Z5090949977, 10 mg/kg",829 ng/mL and 1219 ng/mL and 1675 ng/mL
same,"Plasma concentration, Final (individual mouse)","IV 10 mg/kg, 1440 min, single animals, listed as Z5090949977, 10 mg/kg",31.5 ng/mL and 13.7 ng/mL and 84.5 ng/mL
same,"Plasma concentration, Final (individual mouse)","PO 30 mg/kg, 5 min, single animals, listed as Z5090949977, 30 mg/kg",2091 ng/mL and 7833 ng/mL and 3112 ng/mL
same,"Plasma concentration, Final (individual mouse)","PO 30 mg/kg, 15 min, single animals, listed as Z5090949977, 30 mg/kg",23680 ng/mL and 31270 ng/mL
same,"Plasma concentration, Final (individual mouse)","PO 30 mg/kg, 30 min, single animals, listed as Z5090949977, 30 mg/kg",18100 ng/mL and 24020 ng/mL
same,"Plasma concentration, Final (individual mouse)","PO 30 mg/kg, 60 min, single animals, listed as Z5090949977, 30 mg/kg",14280 ng/mL and 20060 ng/mL
same,"Plasma concentration, Final (individual mouse)","PO 30 mg/kg, 120 min, single animals, listed as Z5090949977, 30 mg/kg",8277 ng/mL and 7588 ng/mL
same,"Plasma concentration, Final (individual mouse)","PO 30 mg/kg, 240 min, single animals, listed as Z5090949977, 30 mg/kg",2686 ng/mL and 2897 ng/mL
same,"Plasma concentration, Final (individual mouse)","PO 30 mg/kg, 360 min, single animals, listed as Z5090949977, 30 mg/kg",3917 ng/mL and 5212 ng/mL
same,"Plasma concentration, Final (individual mouse)","PO 30 mg/kg, 480 min, single animals, listed as Z5090949977, 30 mg/kg",8465 ng/mL and 5117 ng/mL and 2129 ng/mL
same,"Plasma concentration, Final (individual mouse)","PO 30 mg/kg, 1440 min, single animals, listed as Z5090949977, 30 mg/kg",154 ng/mL and 78.9 ng/mL and 329 ng/mL
